Assays:
[1] = tested on: Mycobacterium tuberculosis Erdman (autoluminescent); experiment: total FIC50 (Loewe) at 50% inhibition, three-drug combination (log2); higher = more antagonistic
Protocol: (§1)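 DiaMOND equipotent three-drug combination dose responses (10 doses, 1.5- or 2-fold spacing, centred on IC90) against autoluminescent M. tuberculosis Erdman in 8 in vitro models. Read-out is OD600, or luminescence for the intracellular and dormancy models, normalised to untreated wells. Hill-fit Einf, AUC25 and GRinf are potency metrics; FIC50 and FIC90 are total Loewe fractional inhibitory concentrations as log2 (negative = synergy).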

[2] = tested on: Mycobacterium tuberculosis Erdman (autoluminescent); experiment: AUC25, normalised area under dose response up to IC25 (three-drug combination) (fraction (0-1)); higher = more potent at low dose
Protocol: as §1

[3] = tested on: Mycobacterium tuberculosis Erdman (autoluminescent); experiment: total FIC90 (Loewe) at 90% inhibition, three-drug combination (log2); higher = more antagonistic
Protocol: as §1

[4] = tested on: Mycobacterium tuberculosis Erdman (autoluminescent); experiment: Einf, fitted maximum growth inhibition of three-drug combination (fraction); higher = stronger maximal inhibition
Protocol: as §1

[5] = tested on: Mycobacterium tuberculosis Erdman (autoluminescent); experiment: GRinf, maximum normalised growth rate inhibition (three-drug combination) (unitless (-1 to 1)); higher = less effect (negative = killing)
Protocol: as §1

NNC(=O)c1ccncc1 [isoniazid] + COc1c(N2C[C@@H]3CCCN[C@@H]3C2)c(F)cc2c(=O)c(C(=O)O)cn(C3CC3)c12 [moxifloxacin] + CO[C@H]1/C=C/O[C@@]2(C)Oc3c(C)c(O)c4c(O)c(c(/C=N/N5CCN(C)CC5)c(O)c4c3C2=O)NC(=O)/C(C)=C\C=C\[C@H](C)[C@H](O)[C@@H](C)[C@@H](O)[C@@H](C)[C@H](OC(C)=O)[C@@H]1C [rifampicin]
Conditions	AUC25, [2]	Einf, [4]	GRinf, [5]	total FIC50, [1]	total FIC90, [3]
in vitro model: acidic pH 5.7, time point: constant (~7 days, model-specific)	0.0693	0.835	-0.0692	0.568	–
in vitro model: acidic pH 5.7, time point: terminal (~4-5 doublings, model-specific)	0.0605	0.974	-0.11	0.624	0.457
in vitro model: intracellular J774, time point: constant = terminal	–	0.969	-0.238	–	0.594

Conditions	AUC25, [2]	Einf, [4]	GRinf, [5]	total FIC50, [1]	total FIC90, [3]
in vitro model: butyrate, time point: constant (~7 days, model-specific)	0.104	0.934	-0.00353	0.315	0.977
in vitro model: butyrate, time point: terminal (~4-5 doublings, model-specific)	0.0772	0.969	0.000303	0.345	0.38
in vitro model: cholesterol 0.05 mM, time point: constant (~7 days, model-specific)	0.0843	0.603	0.0201	0.719	–
in vitro model: cholesterol 0.05 mM, time point: terminal (~4-5 doublings, model-specific)	0.0746	0.87	-0.125	1.04	0.125
in vitro model: cholesterol-high 0.2 mM, time point: constant (~7 days, model-specific)	0.0802	0.879	-0.196	0.265	–
in vitro model: cholesterol-high 0.2 mM, time point: terminal (~4-5 doublings, model-specific)	0.0682	1	-0.836	0.508	0.443
in vitro model: dormancy (butyrate + nitrate, low O2), time point: constant (~7 days, model-specific)	0.0766	0.882	0.232	0.163	-0.336
in vitro model: dormancy (butyrate + nitrate, low O2), time point: terminal (~4-5 doublings, model-specific)	0.0621	0.98	-0.102	0.14	0.342
in vitro model: standard 7H9 glycerol, time point: constant = terminal	0.0275	0.873	0.197	0.736	–
in vitro model: valerate, time point: constant (~7 days, model-specific)	0.0382	0.865	0.0264	0.773	–
in vitro model: valerate, time point: terminal (~4-5 doublings, model-specific)	0.0263	0.93	0.0382	0.731	0.407

NNC(=O)c1ccncc1 [isoniazid] + COc1c(N2C[C@@H]3CCCN[C@@H]3C2)c(F)cc2c(=O)c(C(=O)O)cn(C3CC3)c12 [moxifloxacin] + NC(=O)c1cnccn1 [pyrazinamide]
Conditions	AUC25, [2]	Einf, [4]	GRinf, [5]	total FIC50, [1]	total FIC90, [3]
in vitro model: acidic pH 5.7, time point: constant (~7 days, model-specific)	0.0943	0.811	-0.673	-1.74	–
in vitro model: acidic pH 5.7, time point: terminal (~4-5 doublings, model-specific)	0.0851	0.971	-0.382	-2.52	-1.33
in vitro model: intracellular J774, time point: constant = terminal	–	0.997	-0.252	–	0.681

Conditions	AUC25, [2]	Einf, [4]	GRinf, [5]	total FIC50, [1]	total FIC90, [3]
in vitro model: butyrate, time point: constant (~7 days, model-specific)	0.0913	0.951	-0.232	-1.78	-0.791
in vitro model: butyrate, time point: terminal (~4-5 doublings, model-specific)	0.0549	0.975	-0.195	-1.66	-1.72
in vitro model: cholesterol 0.05 mM, time point: constant (~7 days, model-specific)	0.0921	0.697	-0.188	–	–
in vitro model: cholesterol 0.05 mM, time point: terminal (~4-5 doublings, model-specific)	0.0805	0.887	-0.177	-0.327	–
in vitro model: cholesterol-high 0.2 mM, time point: constant (~7 days, model-specific)	0.0786	0.911	-0.235	0.416	–
in vitro model: cholesterol-high 0.2 mM, time point: terminal (~4-5 doublings, model-specific)	0.0668	0.981	-0.527	0.819	0.533
in vitro model: dormancy (butyrate + nitrate, low O2), time point: constant (~7 days, model-specific)	0.0724	0.877	0.245	-2.06	-2.38
in vitro model: dormancy (butyrate + nitrate, low O2), time point: terminal (~4-5 doublings, model-specific)	0.0689	0.984	-0.161	-1.92	-1.58
in vitro model: standard 7H9 glycerol, time point: constant = terminal	0.0639	0.983	-0.168	–	–
in vitro model: valerate, time point: constant (~7 days, model-specific)	0.117	0.877	0.0249	-1.97	–
in vitro model: valerate, time point: terminal (~4-5 doublings, model-specific)	0.0825	0.931	0.0159	-1.91	-1.83

NNC(=O)c1ccncc1 [isoniazid] + COc1c(N2C[C@@H]3CCCN[C@@H]3C2)c(F)cc2c(=O)c(C(=O)O)cn(C3CC3)c12 [moxifloxacin] + O=[N+]([O-])c1cn2c(n1)OC[C@@H](OCc1ccc(OC(F)(F)F)cc1)C2 [pretomanid]
Conditions	AUC25, [2]	Einf, [4]	GRinf, [5]	total FIC50, [1]	total FIC90, [3]
in vitro model: acidic pH 5.7, time point: constant (~7 days, model-specific)	0.105	0.752	-0.684	4.5	–
in vitro model: acidic pH 5.7, time point: terminal (~4-5 doublings, model-specific)	0.0907	0.959	-0.532	4.46	4.49
in vitro model: intracellular J774, time point: constant = terminal	–	0.994	-0.481	–	0.579

Conditions	AUC25, [2]	Einf, [4]	GRinf, [5]	total FIC50, [1]	total FIC90, [3]
in vitro model: butyrate, time point: constant (~7 days, model-specific)	0.0536	0.929	-0.0807	2.83	2.02
in vitro model: butyrate, time point: terminal (~4-5 doublings, model-specific)	0.0441	0.974	-0.0869	2.53	2.38
in vitro model: cholesterol 0.05 mM, time point: constant (~7 days, model-specific)	0.105	0.746	-0.26	1.75	–
in vitro model: cholesterol 0.05 mM, time point: terminal (~4-5 doublings, model-specific)	0.0994	0.957	-0.35	8.24	1.68
in vitro model: cholesterol-high 0.2 mM, time point: constant (~7 days, model-specific)	0.0779	0.892	-0.144	0.366	–
in vitro model: cholesterol-high 0.2 mM, time point: terminal (~4-5 doublings, model-specific)	0.0578	0.977	-0.646	0.407	0.342
in vitro model: dormancy (butyrate + nitrate, low O2), time point: constant (~7 days, model-specific)	0.0796	0.873	0.251	2.42	2.29
in vitro model: dormancy (butyrate + nitrate, low O2), time point: terminal (~4-5 doublings, model-specific)	0.0682	0.986	-0.111	2.34	2.6
in vitro model: standard 7H9 glycerol, time point: constant = terminal	0.0818	0.979	-0.202	1.14	0.349
in vitro model: valerate, time point: constant (~7 days, model-specific)	0.107	0.898	-0.0314	2.35	–
in vitro model: valerate, time point: terminal (~4-5 doublings, model-specific)	0.071	0.948	-0.0412	2.43	2.4
